Experiment [1] addresses T1, Histamine H3 receptor (Cavia porcellus, UniProt Q9JI35). The experiment is described as follows: Histamine H3 radioligand binding assay, guinea pig cortex ([3H]-R-α-methylhistamine). Further details: The cortex was dissected, weighed and homogenised in ice-cold 20 mM Hepes-NaOH buffer; from tissue; host or cells: guinea pig cerebral cortex membranes. Here is the method: Histamine H3 Radioligand Binding Assay—Guinea Pig Cortex
Male Dunkin Hartley guinea pigs (200-300 g) were used. The whole brain was removed and immediately placed in ice-cold 20 mM Hepes-NaOH buffer (pH7.4 at 21±3° C.). The cortex was dissected, weighed and homogenised in ice-cold 20 mM Hepes-NaOH buffer (pH7.4 at 21±3° C.) (50 ml/guinea-pig cortex) using a polytron (Kinematica AG; PT-DA 3020/2TS, 3×3 s). The homogenate was centrifuged at 100×g for 5 min and the supernatants pooled and stored at 4° C. The pellets were rehomogenised in fresh ice-cold buffer (80 ml) and recentrifuged (100×g for 5 min). The supernatants were pooled and pellets rehomogenised and recentrifuged (100×g for 5 min). All supernatants were pooled and centrifuged at 39,800×g for 12 min at 4° C. The final pellet was resuspended in 20 mM Hepes-NaOH buffer (pH7.4 at 21±3° C.) to a tissue concentration of 7.5 mg.ml^−1, using a teflon-in-glass homogeniser.
Incubation Conditions and Data Analysis
These were essentially identical to those used for the guinea pig ileum myenteric plexus assay described above, except that the final assay concentration of [^3H]-R-α-methylhistamine was 0.1 nM. Typical variance in this assay is ±0.12 log units.

In experiment [2] the target is T1, Histamine H3 receptor. The experiment is described as follows: ileal longitudinal muscle, myenteric plexus functional assay (rightward shift of R-(α)-methylhistamine E/[A] curves, Schild). Set-up: the longitudinal muscle layer and adhering myenteric plexus was teased away; from tissue; host or cells: guinea pig ileal longitudinal muscle with myenteric plexus (organ bath). To be noted: guinea pig ileum longitudinal muscle myenteric plexus, electrically stimulated; antagonism of R-(α)-methylhistamine; typical variance ±0.15 log units; read-out: pKB (functional assay) - ileum (converted). The experiment is classed as cell-based. On the procedure:
The biological activity of the compounds of the examples was measured using the ileal longitudinal muscle, myenteric plexus assay described by Paton and Aboo Zar (J. Physiol. 1968, 194, 13-33). Male Dunkin-Hartley guinea pigs (250-300 g) were employed. Briefly, a 50 cm portion of ileum proximal to the caecum was removed, after discarding the terminal 20 cm. Ileal segments (3 cm) were cleaned by passing Krebs-Henseleit buffer containing 3 μM mepyramine gently through the ileum using a Pasteur pipette (size: 13.8 cm length, 0.65 cm diameter). To avoid unnecessary damage to the tissue, Krebs-Henseleit buffer was passed through the ileal segment, while it was lying horizontally on a petri dish. Therefore, the ileum was not over-distended and the buffer flowed through with ease. Each segment was then passed over a Pasteur pipette and the longitudinal muscle layer and adhering myenteric plexus was teased away using moist cotton wool, by stroking tangentially away from the mesenteric attachment. The tissues were suspended in 20 ml organ baths containing Krebs-Henseleit buffer at 37±1° C. and gassed with 95% CO2/5% O2. The tissues were ligated to two parallel stainless steel wires, situated between two platinum electrodes (0.76 cm length, 0.06 cm diameter). All measurements were recorded isometrically (Grass FTO3 transducer). Following an initial loading tension of 1 g, the tissues were stimulated with electrical pulses at a frequency of 0.1 Hz and a pulse duration of 0.5 msec, as described by Kosterlitz & Watt (Br. J. Pharmacol. 1968, 266-276). Initially, the tissues were stimulated at supramaximal (1.3 fold times maximal) voltage for a period of 30 min and then the tissues were washed and re-stimulated. A “sighter dose” of the selective histamine H3-receptor agonist, R-(α)-methylhistamine (0.3 μM) (Arrang et al. Nature, 1987, 117-123), was administered. Upon generation of response, the “sighter dose” was removed from the tissues by “washout” (6 washes over 60 min) and during this period the electrical stimulation was switched off. The tissues were then re-stimulated and allowed to stabilise prior to the addition of drug treatments, which were allocated on a randomised block basis to the organ baths. Following the incubation period, a single cumulative E/[A] curve was obtained. The experimental E/[A] curve data was expressed as the percentage inhibition of the peak height of electrically-stimulated contraction. Antagonist affinity values were calculated from the degree of rightward shift of the R-(α)-methylhistamine E/[A] curves using Schild's methods (Arunlakshana & Schild Br. J. Pharmacol. 1959, 48-58). Typical variance in this assay is ±0.15 log units.

The mark [3] stands for this setting: guinea pig cortex membranes, [3H]-R-α-methylhistamine 0.1 nM, typical variance ±0.12 log units, read-out: pKI (binding assay) - cortex (converted).

Structures are written as SMILES. Like-named read-outs stand apart in the source and are kept apart here.

The results in this text go back to patent US6355665B1, “1H-4(5)-substituted imidazole derivatives, their preparation and their use as histamine H3 receptor ligands” (James Black Foundation Limited, priority 1997, dated 2002).

T1 sequence (Q9JI35 whole entry): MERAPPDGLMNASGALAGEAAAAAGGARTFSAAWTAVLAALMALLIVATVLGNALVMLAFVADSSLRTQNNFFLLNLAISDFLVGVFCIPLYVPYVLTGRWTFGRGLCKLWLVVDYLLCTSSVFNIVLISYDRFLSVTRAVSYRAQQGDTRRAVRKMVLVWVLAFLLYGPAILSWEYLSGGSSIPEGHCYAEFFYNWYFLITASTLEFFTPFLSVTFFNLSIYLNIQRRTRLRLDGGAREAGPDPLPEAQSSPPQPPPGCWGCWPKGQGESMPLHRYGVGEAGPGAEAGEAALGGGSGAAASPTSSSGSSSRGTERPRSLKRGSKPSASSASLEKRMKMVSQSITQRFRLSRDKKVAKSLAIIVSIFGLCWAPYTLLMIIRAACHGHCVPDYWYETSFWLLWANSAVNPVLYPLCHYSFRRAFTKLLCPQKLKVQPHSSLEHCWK

As for `CNC(CCCc1c[nH]cn1)CS(=O)(=O)NCc1ccc(Cl)cc1` (stereo not drawn) [Example 39, N-(4-Chlorobenzyl)-2-methylamino-5-(1H-imidazol-4-yl)-1-pentanesulfonamide], at Histamine H3 receptor [1] (setting [3]), the Ki was 0.00295 µM. For the same compound, the Kb at Histamine H3 receptor [2] was 0.0245 µM.

For the compound `NC(CCCc1c[nH]cn1)CS(=O)(=O)NCc1ccc(Cl)cc1` (stereo not drawn) [Example 40, 2-Amino-N-(4-chlorobenzyl)-5-(1H-imidazol-4-yl)-1-pentanesulfonamide], the Ki at Histamine H3 receptor [1] (setting [3]) is 22.4 µM.

For `O=S(=O)(CC(O)CCCc1c[nH]cn1)NCc1cccc(Cl)c1` (stereo not drawn) [Example 22, N-(3-Chlorobenzyl)-2-hydroxy-5-(1H-imidazol-4-yl)-1-pentanesulfonamide], on Histamine H3 receptor [1] (setting [3]), the Ki was 0.0288 µM. For the same compound, the Kb on Histamine H3 receptor [2] is 0.0794 µM. For the compound `NCC(CCCc1c[nH]cn1)CS(=O)(=O)NCc1ccc(Cl)cc1` (stereo not drawn) [Example 38, 2-Aminomethyl-N-(4-chlorobenzyl)-5-(1H-imidazol-4-yl)-1-pentanesulfonamide], the Ki at Histamine H3 receptor [1] (setting [3]) is 0.00132 µM. Moreover, the Kb on Histamine H3 receptor [2] is 0.0123 µM.

With `O=S1(=O)C2C=CC(c3c[nH]cn3)CC2CN1Cc1ccc(Cl)cc1` (stereo not drawn) [Example 42, 2-(4-Chlorohenzyl)-5-(1H-imidazol-4-yl)-2,3,3a, 4,5,7a-hexahydro-benzo[d]isothiazole 1,1-dioxide], the Ki on Histamine H3 receptor [1] (setting [3]) is 1.23 µM. The Kb at Histamine H3 receptor [2] was 2.09 µM. For the compound `O=S(=O)(CCCCCc1c[nH]cn1)NCc1ccccc1` [Example 13, N-Benzyl-5-(1H-imidazol-4-yl)-1-pentanesulfonamide], at Histamine H3 receptor [1] (setting [3]), the Ki is 0.00891 µM. For the same compound, on Histamine H3 receptor [2], the Kb was 0.0589 µM.

In the case of `NCCCN(Cc1ccc(Cl)cc1)S(=O)(=O)CCCCCc1c[nH]cn1` [Example 35, N-(4-Chlorobenzyl)-N-(3-aminopropyl)-5-(1H-imidazol-4-yl)-1-pentanesulfonamide], the Ki at Histamine H3 receptor [1] (setting [3]) is 0.0182 µM. Moreover, at Histamine H3 receptor [2], the Kb is 0.151 µM. In turn, `O=S(=O)(CCCCc1c[nH]cn1)CCc1ccccc1` [Example 23, [4-(1H-Imidazol-4-yl)butyl]phenethyl sulfone] had a Ki at Histamine H3 receptor [1] of 0.0479 µM. Besides, the Kb at Histamine H3 receptor [2] is 0.214 µM. On to `O=S(=O)(C/C=C/CCc1c[nH]cn1)NCc1ccc(Cl)cc1` [Example 33, (E)-N-(4-Chlorobenzyl)-5-(1H-imidazol-4-yl)-1-pent-2-enesulfonamide], for which the Ki at Histamine H3 receptor [1] (setting [3]) is 0.000851 µM. At Histamine H3 receptor [2], the Kb was 0.00468 µM. In the case of `O=S(=O)(CC(O)CCCc1c[nH]cn1)NCc1ccc(Br)cc1` (stereo not drawn) [Example 16, N-(4-Bromobenzyl)-2-hydroxy-5-(1H-imidazol-4-yl)-1-pentanesulfonamide], the Ki on Histamine H3 receptor [1] (setting [3]) is 0.00112 µM. In addition, the Kb at Histamine H3 receptor [2] is 0.0182 µM. Regarding `O=S(=O)(CCCCCc1c[nH]cn1)NCc1ccc(C(F)(F)F)cc1` [Example 30, N-(4-Trifluoromethylbenzyl)-5-(1H-imidazol-4-yl)-1-pentanesulfonamide], the Ki on Histamine H3 receptor [1] (setting [3]) is 0.00151 µM. Moreover, the Kb on Histamine H3 receptor [2] is 0.00933 µM. For `O=S(=O)(CC(O)CCc1c[nH]cn1)NCCc1ccc(Cl)cc1` (stereo not drawn) [Example 10, N-(4Chlorophenethyl)-2-hydroxy-4-(1H-imidazol-4-yl)-1-butanesulfonamide], the Ki at Histamine H3 receptor [1] (setting [3]) is 0.741 µM. For `O=S(=O)(CCCCCCc1c[nH]cn1)NCc1ccc(Cl)cc1` [Example 7, N-(4-Chlorobenzyl)-6-(1H-imidazol-4-yl)-1-hexanesulfonamide], the Ki at Histamine H3 receptor [1] (setting [3]) was 0.00288 µM. Also, the Kb at Histamine H3 receptor [2] is 0.00513 µM. With `CN(Cc1ccc(Cl)cc1)S(=O)(=O)CCCCCc1c[nH]cn1` [Example 34, N-(4-Chlorobenzyl)-N-methyl-5-(1H-imidazol-4-yl)-1-pentanesulfonamide], at Histamine H3 receptor [1] (setting [3]), the Ki is 0.0102 µM. Besides, the Kb at Histamine H3 receptor [2] is 0.0174 µM. The matching figures for `O=[N+]([O-])CC(CCCc1c[nH]cn1)CS(=O)(=O)NCc1ccc(Cl)cc1` (stereo not drawn) [Example 37, N-(4-Chlorobenzyl)-2-nitromethyl-5-(1H-imidazol-4-yl)-1-pentanesulfonamide]: 0.00661 µM and 0.0204 µM.

Take `O=S(=O)(CC(O)CCCCc1c[nH]cn1)NCc1ccc(Cl)cc1` (stereo not drawn) [Example 8, N-(4-Chlorobenzyl)-2-hydroxy-6-(1H-imidazol-4-yl)-1-hexanesulfonamide]: the Ki at Histamine H3 receptor [1] (setting [3]) is 0.00427 µM. Further, the Kb at Histamine H3 receptor [2] is 0.0126 µM. Consider `O=S(=O)(CC(O)CCc1c[nH]cn1)NCc1ccc(Cl)cc1` (stereo not drawn) [Example 2, N-(4-Chlorobenzyl)-2-hydroxy-4-(1H-imidazol-4-yl)-1-butanesulfonamide], for which the Ki at Histamine H3 receptor [1] (setting [3]) was 0.275 µM. Besides, the Kb at Histamine H3 receptor [2] is 0.24 µM.

For `O=S(=O)(CCCCc1c[nH]cn1)CCc1ccc(Cl)cc1` [Example 24, [4-(1H-Imidazol-4-yl)butyl] 4-chlorophenethyl sulfone], the Ki at Histamine H3 receptor [1] (setting [3]) is 0.00562 µM. The Kb on Histamine H3 receptor [2] was 0.0107 µM.

Take `O=S(=O)(CCCCCc1c[nH]cn1)NCCc1ccc(Cl)cc1` [Example 11, N-(4-Chlorophenethyl)-5-(1H-imidazol-4-yl)-1-pentanesulfonamide]: at Histamine H3 receptor [1] (setting [3]), the Ki was 0.00724 µM. For the same compound, the Kb on Histamine H3 receptor [2] was 0.0295 µM. The matching figures for `O=S(=O)(CC(O)CCCc1c[nH]cn1)NCC1CCCCC1` (stereo not drawn) [Example 18, N-Cyclohexylmethyl-2-hydroxy-5-(1H-imidazol-4-yl)-1-pentanesulfonamide]: 0.141 µM and 0.389 µM.

`O=S(=O)(/C=C/C=C/c1c[nH]cn1)NCc1ccc(Cl)cc1` [Example 41, (E,E)-N-(4-Chlorobenzyl)-4-(1H-imidazol-4-yl)-1-but-1,3-dienesulfonamide]: the Ki on Histamine H3 receptor [1] (setting [3]) is 1.58 µM. Further, the Kb on Histamine H3 receptor [2] is 2.63 µM. The matching figures for `O=S(=O)(CCCCc1c[nH]cn1)Cc1ccc(Cl)cc1` [Example 25, [4-(1H-Imidazol-4-yl)butyl]-4-chlorobenzyl sulfone]: 0.0186 µM and 0.0302 µM. The matching figures for `O=S(=O)(CCCCCc1c[nH]cn1)NCc1ccc(F)cc1` [Example 28, N-(4-Fluorobenzyl)-5-(1H-imidazol-4-yl)-1-pentanesulfonamide]: 0.00708 µM and 0.0191 µM. The matching figures for `O=S(=O)(CCCCCc1c[nH]cn1)N(Cc1ccccc1)Cc1ccc(Cl)cc1` [Example 36, N-Benzyl-N-(4-chlorobenzyl)-5-(1H-imidazol-4-yl)-1-pentanesulfonamide]: 0.2 µM and 1.55 µM. Turning to `O=S(=O)(CCCCCc1c[nH]cn1)NCc1ccc(Br)cc1` [Example 15, N-(4-Bromobenzyl)-5-(1H-imidazol-4-yl)-1-pentanesulfonamide], the Ki on Histamine H3 receptor [1] (setting [3]) was 0.000891 µM. At Histamine H3 receptor [2], the Kb was 0.00339 µM. The matching figures for `O=C(CCc1c[nH]cn1)CS(=O)(=O)NCc1ccc(Cl)cc1` [Example 4, N-(4-Chlorobenzyl)-2-oxy-4-(1H-imidazol-4-yl)-1-butanesulfonamide]: 0.0617 µM and 0.257 µM. In the case of `O=S(=O)(CCCCCc1c[nH]cn1)NCC12CC3CC(CC(C3)C1)C2` [Example 31, N-(1-Adamantylmethyl)-5-(1H-imidazol-4-yl)-1-pentanesulfonamide], the Ki on Histamine H3 receptor [1] (setting [3]) is 0.186 µM. The Kb at Histamine H3 receptor [2] was 0.174 µM. The matching figures for `O=S(=O)(CCCCCc1c[nH]cn1)NCc1ccccc1Cl` [Example 19, N-(2-Chlorobenzyl)-5-(1H-imidazol-4-yl)-1-pentanesulfonamide]: 0.0195 µM and 0.245 µM.
